Experimental data taken from patent US7371555B2, “Polypeptides having α-H-α-amino acid amide racemase activity and nucleic acids encoding the same” (DSM IP Assets B.V., priority 2002, dated 2008).

Key:
[1] = tested on: E. coli clones with plasmid encoded A. nicotianae NCIMB 41126 α-H-α-amino acid amide racemase activity; experiment: Confirmation of potential positive clones of the A. nicotianae NCIMB 41126 gene library; assay type: cell-based, Arthrobacter nicotianae NCIMB 41126; conditions: 70 mM substrate, 10 μM pyridoxal-5-phosphate, 20 h at 30° C.
Experimental: Of all 32 potential positive clones identified in the screening, material from the masterplates was used to inoculate 3 ml of liquid screening medium containing 50 mg/l kanamycin. After growth for 2 days at 30° C., cells were collected by centrifuging 2 ml of these cell cultures. Then the cell pellets were washed four times in 25 mM Tris-HCl buffer, pH 7.5. Subsequently, the cell pellets were resuspended in 100 μl substrate solution containing 70 mM of D-phenylalanine amide, or D-leucine amide, or D-valine amide in 50 mM Tris-HCl, pH 7.5 and 1 mM MnCl2. After incubation for 20 h at 30° C., the reactions were stopped by the addition of 100 μl of 0.15 M HCl, after which the reaction mixtures were analyzed by the HPLC method described in Example 1.
Confirmation of both potential positive clones was done according to the protocol given in Example 3, with the exception that all 3 substrate solutions used contained 10 μM of pyridoxal-5-phosphate.

[2] = tested on: disintegrated cells of Arthrobacter nicotianae; experiment: α-H-α-amino acid amide racemase activity test with disintegrated cells; assay type: biochemical; conditions: incubation time 139 h; 0.79 w/w % D-leucine amide
Experimental: (§1) After growth of these three strains in Medium A containing 2 g/l of D-α-amino-ε-caprolactam, cells were harvested by centrifugation at 12,000×g. After centrifugation the supernatant was decanted and the wet weight of the pellet was measured. To the pellet, sonification buffer (NaCl, 16 g/l; KCl, 0.74 g/l; Na2HPO4, 0.27 g/l; glucose, 2 g/l; HEPES, 10 g/l, pH 7.0) was added in a 1:2 ratio (wet weight cell pellet:ml buffer). During storage between cell harvest and sonification the pellet was frozen in the sonification buffer at −86° C.
(§2) Sonification was performed with a Soniprep 150 of MSE at maximal amplitude of 20 microns in periods of 10 min. using time intervals of 10 sec. (i.e., 10 sec. sonification, 10 sec. cooling down), cooling the sample on ice/acetone. Each 10 min. the cells were viewed microscopically. The sonification procedure was stopped when >70% of the cells were broken.
(§3) 1 ml Of disintegrated cells of each of the three strains was incubated in a HEPES-NaOH buffer (20 mM) pH 7.7, to which pyridoxal-5-phosphate (0.01 mM) was added as a cofactor and D-leucine amide (60.8 mM) as a substrate in a total volume of 10 ml (0.79 w/w % D-leucine amide). After 0 and 139 hours 1 ml samples were taken (of which the exact weight was measured) and the reaction in these samples was stopped by adding 1 ml methanol (of which the exact weight was measured too; to be able to calculate dilution factors). Stopped reaction mixtures were centrifuged to remove particulates. The supernatants were frozen at −86° C. until HPLC analysis according to the method given in Example 1.

[3] = tested on: disintegrated cells of Agrobacterium rhizogenes Bi; experiment: as above; assay type: biochemical; conditions: incubation time 139 h; 0.79 w/w % D-leucine amide
Experimental: as §1, §2, §3

[4] = tested on: disintegrated cells of Agrobacterium rhizogenes Na; experiment: as above; assay type: biochemical; conditions: incubation time 139 h; 0.79 w/w % D-leucine amide
Experimental: as §1, §2, §3

[5] = tested on: α-H-α-amino acid amide racemase from Arthrobacter nicotianae NCIMB 41126; experiment: Substrate specificity, CFE from E. coli DH10B/pAn(1)PLV36D06 (Example 9); assay type: biochemical; conditions: relative to the activity towards D-leucine amide; 75 mM substrate, pH 8.0, 37° C.
Experimental: Preparation of the CFE of E. coli DH10B/pAn(1)PLV36D06 was performed as described in Example 7 for E. coli TOP10/pKEC_AZAR—3
Before applying the CFE from E. coli DH10B/pAn(1)PLV36D06 in the reactions with different enantiomerically pure α-H-α-amino acid amides to determine the substrate specificity of the A. nicotianae α-H-α-amino acid amide racemase, the E. coli amidases/aminopeptidases in this CFE were inhibited by a pre-treatment with an inhibitor cocktail. One tablet of Complete Mini Protease Inhibitor Cocktail (Roche Applied Science, Mannheim, Germany) was dissolved in 9 ml of the CFE followed by an incubation of 1 hour at room temperature. Next, reaction mixtures of 10 ml each (including the CFE) were prepared containing 50 mM HEPES-NaOH, pH 8.0, 20 μM pyridoxal-5-phosphate, 0.4 mg/ml BSA, 1 mM dithiothreitol and 75 mM of one of the amino acid amides tested. Reactions were started by the addition of 1 ml of the pre-treated CFE of E. coli DH10B/pAn(1)PLV36D06 or E. coli TOP10/pBAD/Myc-HisC (blank) and were incubated at 37° C. At regular time intervals samples of 1 ml were taken and transferred to vials containing 1 ml of 1M H3PO4 to stop the reaction. After sufficient dilution of the samples in 0.4 M borate buffer pH 9.4, the mixtures obtained were analyzed using HPLC to determine the exact concentrations of the two amino acid and two amino acid amide enantiomers according to the method of Example 7.

CC(C)C[C@@H](N)C(N)=O [D-leucine amide]
conversion of D-amide into L-acid [1]: significantly converted
D-leucine [2]: 0.002 w/w %
D-leucine amide [2]: 0.56 w/w %
L-leucine [2]: 0.068 w/w %
D-leucine [3]: 0.013 w/w %
D-leucine amide [3]: 0.61 w/w %
L-leucine [3]: 0.025 w/w %
D-leucine [4]: 0.036 w/w %
D-leucine amide [4]: 0.51 w/w %
L-leucine [4]: 0.078 w/w %
Rel. initial activity [5]: 100%
